Reference: patent US10947210B2 (priority 2015, dated 2021)
Read-outs that look alike come from different tables or passages of the source.

Key:
[1] = biological target: HCV RNA-dependent RNA polymerase (NS5B) (Hepatitis C virus genotype 1b (isolate BK) (HCV), UniProt P26663); test: RNA-Dependent RNA HCV NS5B (polymerase) Assay and IC50 Determination; type: biochemical; conditions: purified HCV NS5B polymerase, polyA:U16 substrate, 32P-UTP incorporation
Procedure, shortened: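 Purified NS5B was incubated with 0.5 uM polyA:U16, 10 μM UTP plus ^32P-UTP in 50 mM Hepes-KOH pH 7.5, 5 mM MgCl2, 5 mM DTT, 2% glycerol and 0.01% Triton X-100. Inhibitor reactions ran 60 min at 37° C, and radiolabelled RNA product was quantified after filter capture. IC50 values were obtained from concentration series.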

[2] = tested on: HCV subgenomic RNA replicon in Huh-luc/neo-ET cells; test: HCV Replicon Assay and EC50 Determination; type: cell-based; conditions: Hepatitis C virus, 72 hours, luciferase reporter activity
Method: HCV Replicon Assay and EC50 Determination.
HCV replicon assay is based on the luciferase reporter cell line (Huh-luc/neo-ET). This reporter cell line is a human liver carcinoma cell line (Huh-7) stably transfected with an autonomously replicating bicistronic HCV subgenomic RNA replicon (Lohmann et al., 1999, Science, 285, 110-113). Inhibition of HCV RNA replication was monitored through analysis of reporter luciferase activity. Briefly, HCV replicon cells were incubated with inhibitors for 72 hours at 37° C. After the incubation, duplicate plates were treated and incubated in parallel for assessment of cellular toxicity by XTT staining and anti-HCV activity by measurement of luciferase reporter activity. Either human interferon alpha 2B or ribavirin was used as a reference compound. EC50 values were determined using GraFit (Erithaus software) or Excel.
Table 2 presents EC50 data obtained using this HCV replicaon assay to test representative compounds. Data are presented as follows: “+++” means <0.1 μM; “++” means ≥0.1 μM and <1.0 μM; “+” means ≥1.0 μM.

Chain of HCV RNA-dependent RNA polymerase (NS5B) (P26663 2420-3010): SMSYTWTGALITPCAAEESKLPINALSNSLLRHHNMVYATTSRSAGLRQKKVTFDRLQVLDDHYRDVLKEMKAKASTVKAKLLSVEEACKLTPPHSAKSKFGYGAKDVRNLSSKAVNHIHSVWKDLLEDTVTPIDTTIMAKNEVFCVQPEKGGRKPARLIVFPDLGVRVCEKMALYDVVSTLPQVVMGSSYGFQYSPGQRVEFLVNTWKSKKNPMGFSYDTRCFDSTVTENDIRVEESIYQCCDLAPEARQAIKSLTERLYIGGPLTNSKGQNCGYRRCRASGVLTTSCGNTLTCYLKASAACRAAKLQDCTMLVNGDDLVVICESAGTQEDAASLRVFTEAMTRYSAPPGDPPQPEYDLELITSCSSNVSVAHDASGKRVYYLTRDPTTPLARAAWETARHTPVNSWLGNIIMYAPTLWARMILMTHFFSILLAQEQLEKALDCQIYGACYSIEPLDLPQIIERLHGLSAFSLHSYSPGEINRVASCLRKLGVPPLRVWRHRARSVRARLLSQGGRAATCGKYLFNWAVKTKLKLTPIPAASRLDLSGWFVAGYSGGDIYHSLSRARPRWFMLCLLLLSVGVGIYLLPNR

| Structure (SMILES) | IC50 ([1]; read-out: IC50) [µM] | EC50 [2] [µM] | IC50 ([1]; IC50 (μM)) [µM] |
| --- | --- | --- | --- |
| CNC(=O)c1c(-c2ccc(F)cc2)oc2cc(N(CC(=O)NC3(C(=O)NCc4cccc(C(=O)C=C(O)C(=O)O)c4)CCCC3)S(C)(=O)=O)c(C3CC3)cc12 [Compound 09-14E, 4-[3-({[1-(2-{[5-Cyclopropyl-2-(4-fluoro-phenyl)-3-methylcarbamoyl-benzofuran-6-yl]-methanesulfonyl-amino}-acetylamino)-cyclopentanecarbonyl]-amino}-methyl)-phenyl]-2-hydroxy-4-oxo-but-2-enoic Acid] | > 1 | 0.1 to 1 |  |
| CNC(=O)c1c(-c2ccc(F)cc2)oc2cc(N(CC(=O)NCC(=O)NCc3cccc(C(=O)/C=C(\O)C(=O)O)c3)S(C)(=O)=O)c(C3CC3)cc12 [Compound 09-14A, 4-(3-{[2-(2-{[5-Cyclopropyl-2-(4-fluoro-phenyl)-3-methylcarbamoyl-benzofuran-6-yl]-methanesulfonyl-amino}-acetylamino)-acetylamino]-methyl}-phenyl)-2-hydroxy-4-oxo-but-2-enoic Acid] | 0.1 to 1 | 0.1 to 1 |  |
| CNC(=O)c1c(-c2ccc(F)cc2)oc2cc(N(CCOCCOCc3ccc(C(=O)O)cc3)S(C)(=O)=O)c(C3CC3)cc12 [Compound 06-7B, 4-[2-(2-{[5-Cyclopropyl-2-(4-fluoro-phenyl)-3-methylcarbamoyl-benzofuran-6-yl]-methanesulfonyl-amino}-ethoxy)-ethoxymethyl]-benzoic Acid] | 0.1 to 1 | 0.1 to 1 |  |
| CNC(=O)c1c(-c2ccc(F)cc2)oc2cc(N(CCOCCOCc3cccc(C(C)=O)c3)S(C)(=O)=O)c(C3CC3)cc12 [Compound 02-8A, 6-(N-(2-(2-(3-Acetylbenzyloxy)-ethoxy)-ethyl)-methylsulfonamido)-5-cyclopropyl-2-(4-fluorophenyl)-N-methylbenzofuran-3-carboxamide] |  | < 0.1 | > 1 |
| CNC(=O)c1c(-c2ccc(F)cc2)oc2cc(N(CCOCCOCCOCCO)S(C)(=O)=O)c(C3CC3)cc12 [Compound 04-5, 5-Cyclopropyl-2-(4-fluorophenyl)-6-(N-(2-(2-(2-(2-hydroxyethoxy)-ethoxy)-ethoxy)-ethyl) Methylsulfonamido)-N-methylbenzofuran-3-carboxamide] |  | 0.1 to 1 | > 1 |
| CNC(=O)c1c(-c2ccc(F)cc2)oc2cc(N(CCOCCOCCOC(C)C(=O)O)S(C)(=O)=O)c(C3CC3)cc12 (stereo not drawn) [Compound 23-6B, 2-{2-[2-(2-{[5-Cyclopropyl-2-(4-fluoro-phenyl)-3-methylcarbamoyl-benzofuran-6-yl]-methanesulfonyl-amino}-ethoxy)-ethoxy]-ethoxy}-propionic Acid] | 0.1 to 1 | < 0.1 |  |
| CNC(=O)c1c(-c2ccc(F)cc2)oc2cc(N(CCNC(=O)CNC(=O)c3cccc(CCCC(=O)O)c3)S(C)(=O)=O)c(C3CC3)cc12 [Compound 07-10, 4-(3-{[(2-{[5-Cyclopropyl-2-(4-fluoro-phenyl)-3-methylcarbamoyl-benzofuran-6-yl]-methanesulfonyl-amino}-ethylcarbamoyl)-methyl]-carbamoyl}-phenyl)-butyric Acid] | > 1 |  |  |
| CNC(=O)c1c(-c2ccc(F)cc2)oc2cc(N(CCOCCOCCOC(C)(C)C(=O)NO)S(C)(=O)=O)c(C3CC3)cc12 [Compound 26-8B, 5-Cyclopropyl-2-(4-fluoro-phenyl)-6-[(2-{2-[2-(1-hydroxycarbamoyl-1-methyl-ethoxy)-ethoxy]-ethoxy}-ethyl)-methanesulfonyl-amino]-benzofuran-3-carboxylic Acid Methylamide] | > 1 |  |  |
| CNC(=O)c1c(-c2ccc(F)cc2)oc2cc(N(CCOCCOCCOc3ccc(C(=O)O)cc3)S(C)(=O)=O)c(C3CC3)cc12 [Compound 14-7C, 4-{2-[2-(2-{[5-Cyclopropyl-2-(4-fluoro-phenyl)-3-methylcarbamoyl-benzofuran-6-yl]-methanesulfonyl-amino}-ethoxy)-ethoxy]-ethoxy}-benzoic Acid] | 0.1 to 1 |  |  |
| CNC(=O)c1c(-c2ccc(F)cc2)oc2cc(N(CC(=O)NCC(=O)NCCCC(C)C(=O)OC)S(C)(=O)=O)c(C3CC3)cc12 (stereo not drawn) [Compound 10-3B, 5-[2-(2-{[5-Cyclopropyl-2-(4-fluoro-phenyl)-3-methylcarbamoyl-benzofuran-6-yl]-methanesulfonyl-amino}-acetylamino)-acetylamino]-2-methyl-pentanoic Acid Methyl Ester] | > 1 |  |  |
| CNC(=O)c1c(-c2ccc(F)cc2)oc2cc(N(CCOCCOCCOCCCCCc3cccc(C(=O)CC(=O)C(=O)O)c3)S(C)(=O)=O)c(C3CC3)cc12 [Compound 30-15, 4-[3-(5-{2-[2-(2-{[5-Cyclopropyl-2-(4-fluoro-phenyl)-3-methylcarbamoyl-benzofuran-6-yl]-methanesulfonyl-amino}-ethoxy)-ethoxy]-ethoxy}-pentyl)-phenyl]-2,4-dioxo-butyric acid] | > 1 |  |  |
| CNC(=O)c1c(-c2ccc(F)cc2)oc2cc(N(CCOCCOCCOCCOCCOCc3cccc(C(C)=O)c3)S(C)(=O)=O)c(C3CC3)cc12 [Compound 02-8D, 6-({2-[2-(2-{2-[2-(3-Acetyl-benzyloxy)-ethoxy]-ethoxy}-ethoxy)-ethoxy]-ethyl}-methanesulfonyl-amino)-5-cyclopropyl-2-(4-fluoro-phenyl)-benzofuran-3-carboxylic Acid Methylamide] | > 1 |  |  |
| CNC(=O)c1c(-c2ccc(F)cc2)oc2cc(N(CCCCCCCc3ccc(C(=O)OC)cc3)S(C)(=O)=O)c(C3CC3)cc12 [Compound 13-7D, 4-(7-{[5-Cyclopropyl-2-(4-fluoro-phenyl)-3-methylcarbamoyl-benzofuran-6-yl]-methanesulfonyl-amino}-heptyl)-benzoic Acid Methyl Ester] | 0.1 to 1 |  |  |
| CCOC(=O)c1ccc(COCCOCCN(c2cc3oc(-c4ccc(F)cc4)c(C(=O)NC)c3cc2C2CC2)S(C)(=O)=O)c2ccccc12 [Compound 20-7, 4-[2-(2-{[5-Cyclopropyl-2-(4-fluoro-phenyl)-3-methylcarbamoyl-benzofuran-6-yl]-methanesulfonyl-amino}-ethoxy)-ethoxymethyl]-naphthalene-1-carboxylic Acid Ethyl Ester] | 0.1 to 1 |  |  |
| CNC(=O)c1c(-c2ccc(F)cc2)oc2cc(N(CCOCCOCCOCCOCc3cccc(C(=O)O)c3)S(C)(=O)=O)c(C3CC3)cc12 [Compound 30-4, 3-(2-{2-[2-(2-{[5-Cyclopropyl-2-(4-fluoro-phenyl)-3-methylcarbamoyl-benzofuran-6-yl]-methanesulfonyl-amino}-ethoxy)-ethoxy]-ethoxy}-ethoxymethyl)-benzoic acid] | > 1 |  |  |
| CNC(=O)c1c(-c2ccc(F)cc2)oc2cc(N(CCOCCOCc3cccc(C(=O)OC)c3)S(C)(=O)=O)c(C3CC3)cc12 [Compound 06-6C, 3-[2-(2-{[5-Cyclopropyl-2-(4-fluoro-phenyl)-3-methylcarbamoyl-benzofuran-6-yl]-methanesulfonyl-amino}-ethoxy)-ethoxymethyl]-benzoic acid methyl ester] | > 1 |  |  |
| CNC(=O)c1c(-c2ccc(F)cc2)oc2cc(N(CCOCCOCCOCCOCCOCc3ccc(C(C)=O)cc3)S(C)(=O)=O)c(C3CC3)cc12 [Compound 02-8I, 6-({2-[2-(2-{2-[2-(4-Acetyl-benzyloxy)-ethoxy]-ethoxy}-ethoxy)-ethoxy]-ethyl}-methanesulfonyl-amino)-5-cyclopropyl-2-(4-fluoro-phenyl)-benzofuran-3-carboxylic Acid Methylamide] | > 1 |  |  |
| CNC(=O)c1c(-c2ccc(F)cc2)oc2cc(N(CCOCCCCc3ccc(C(=O)OC)cc3)S(C)(=O)=O)c(C3CC3)cc12 [Compound 13-7A, 4-[4-(2-{[5-Cyclopropyl-2-(4-fluoro-phenyl)-3-methylcarbamoyl-benzofuran-6-yl]-methanesulfonyl-amino}-ethoxy)-butyl]-benzoic Acid Methyl Ester] | 0.1 to 1 |  |  |
| CNC(=O)c1c(-c2ccc(F)cc2)oc2cc(N(CCOCCOCCOCc3ccc(C(=O)OC)cc3)S(C)(=O)=O)c(C3CC3)cc12 [Compound 06-6E, 4-{2-[2-(2-{[5-Cyclopropyl-2-(4-fluoro-phenyl)-3-methylcarbamoyl-benzofuran-6-yl]-methanesulfonyl-amino}-ethoxy)-ethoxy]-ethoxymethyl}-benzoic acid methyl ester] | 0.1 to 1 |  |  |
| CNC(=O)c1c(-c2ccc(F)cc2)oc2cc(N(CCOCCOCCOC(C)(C)C(=O)O)S(C)(=O)=O)c(C3CC3)cc12 [Compound 26-7B, 2-{2-[2-(2-{[5-Cyclopropyl-2-(4-fluoro-phenyl)-3-methylcarbamoyl-benzofuran-6-yl]-methanesulfonyl-amino}-ethoxy)-ethoxy]-ethoxy}-2-methyl-propionic Acid] | 0.1 to 1 |  |  |
| CNC(=O)c1c(-c2ccc(F)cc2)oc2cc(N(CCOCCOCCOCCCCc3cccc(C(=O)CC(=O)C(=O)O)c3)S(C)(=O)=O)c(C3CC3)cc12 [Compound 30-16, 4-[3-(4-{2-[2-(2-{[5-Cyclopropyl-2-(4-fluoro-phenyl)-3-methylcarbamoyl-benzofuran-6-yl]-methanesulfonyl-amino}-ethoxy)-ethoxy]-ethoxy}-butyl)-phenyl]-2,4-dioxo-butyric acid] | > 1 |  |  |
